From ChEMBL document CHEMBL1828594, “Synthesis, stereochemistry and SAR of a series of minodronate analogues as RGGT inhibitors” (Eur J Med Chem, 2011) come the findings set out here.

Experiment [1] in a line: Inhibition of RGGT in cell-based assay assessed as inhibition of Rab11 prenylation after 24 hrs by Western blot analysis. In general terms: Immunoblotting shows a protein as a band on a membrane.
Experiment [2] relates to J774. Kind of experiment: Cytotoxicity against mouse J774 cells assessed as reduction in cell viability after 48 hrs. The conditions noted are these: J774, 48 h. The experiment is classed as functional, cell-based.
Experiment [3] is described as follows: Inhibition of RGGT assessed as [3H]GGPP incorporation into Rab1a protein after 30 mins.

Structures are written as SMILES.

Broadly, the IC50 is the concentration that gives 50% inhibition. In the case of `O=C(O)C(Cl)(Cc1cnc2ccccn12)P(=O)(O)O` (racemic), in experiment [1], the LED amounted to 12 µM. For the same compound, the IC50 was over 400 µM in experiment [2] and 7.5 µM in experiment [3].

On to `O=C(O)C(O)(Cc1cnc2ccccn12)P(=O)(O)O` (racemic) [(2-HYDROXY-3-IMIDAZO[1,2-A]PYRIDIN-3-YL-2-PHOSPHONOPROPIONIC ACID (ENANTIONMERS)], for which the LED in experiment [1] stood at 3 µM. Moreover, the half-inhibitory concentration (IC50) in experiment [2] was 50 µM; in experiment [3] it was 1.24 µM.

Consider `O=C(O)C(F)(Cc1cnc2ccccn12)P(=O)(O)O` (stereo not given), for which the LED in experiment [1] was found to be 6 µM. The IC50 came to 60 µM in experiment [2] and 6.11 µM in experiment [3].

As for `O=C(O)C(Br)(Cc1cnc2ccccn12)P(=O)(O)O` (racemic), the LED in experiment [1] worked out at 25 µM. For the same compound, the half-inhibitory concentration (IC50) in experiment [2] is over 600 µM; in experiment [3] it was 5.56 µM.

Regarding `O=C(O)C(Cc1cnc2ccccn12)P(=O)(O)O` (racemic), the LED in experiment [1] came to 12 µM. Also, the values for the half-maximal inhibitory concentration (IC50) in experiment [2] and in experiment [3] were over 600 µM and 13.4 µM, respectively.
